From article PMC6572135, “N-Methyl-D-glucamine–Calix[4]resorcinarene Conjugates: Self-Assembly and Biological Properties” (Molecules, 2019)
In brackets after ≈: the same amount, converted by molar mass.

Experiments:
S. aureus 209P [1] = assay: Bacteriostatic activity (MIC), dilution method; assay type: cell-based; conditions: Staphylococcus aureus, read-out: Minimal Inhibiting Concentration (MIC)
Procedure: (§1) In vitro bacteriostatic and fungistatic activities of the macrocycles were evaluated against pathogenic representatives of Gram-positive bacteria (Staphylococcus aureus 209p, Bacillus cereus 8035), Gram-negative bacteria (Pseudomonas aeruginosa 9027, Escherichia coli F-50), and yeast (Trichophyton mentagrophytes var. gypseum 1773, Aspergillus niger BKMF-1119, Candida albicans 885–653). Minimal inhibitory concentrations (MICs) were estimated by conventional dilution methods for bacteria and fungi. The antibacterial and antifungal assays were performed in Hottinger broth (HiMe-dia Laboratories Pvt. Ltd. Mumbai, India) and Sabouraud dextrose broth (HiMedia Laboratories Pvt. Ltd.) (bacteria 3 × 10^5 cfu/mL and yeast 2 × 10^4 cfu/mL). The bactericidal and fungicidal activities were determined as described earlier. The tests were repeated three times.

B. cereus 8035 [2] = assay: Bacteriostatic activity (MIC), dilution method; assay type: cell-based; conditions: Bacillus cereus; B. cereus 8035, bacteriostatic activity; read-out: Minimal Inhibiting Concentration (MIC)
Procedure: as §1

[3] = Stability of water solutions; assay type: physicochemical; conditions: water without MG
S. aureus 209P [4] = assay: Bactericidal activity (MBC); assay type: cell-based; conditions: Staphylococcus aureus, read-out: Minimal Bactericidal Concentration (MBC)
Procedure: as §1

B. cereus 8035 [5] = assay: Bactericidal activity (MBC); assay type: cell-based; conditions: Bacillus cereus; B. cereus 8035, bactericidal activity; read-out: Minimal Bactericidal Concentration (MBC)
Procedure: as §1

[6] = Transmission electron microscopy of aggregates; assay type: physicochemical; conditions: aqueous solution mixture of GCR-2 with two-fold excess of MG
Procedure: In a mixed 1 mM GCR-2–2 mM MG system particles with a hydrodynamic diameter of 2 nm were formed, which correlates well with the size of single macrocycle molecules. In a 15 mM GCR-2–30 mM MG mixed system particles with 3.8 nm diameter were formed. Such a size approximately corresponds to double the length of a GCR-2 molecule. This indicates of formation of spherical micelles by virtue of lateral packaging of aromatic walls by head-to-head contact due to π–stacking and hydrogen bonds between neighboring GCR-2 molecules as depicted in Figure 6b. Such an aggregation mode is similar to the self-assembly behavior described for other calixarenes. The zeta-potential of obtained particles is −17.4 mV which is attributable primarily to hydroxylic groups. The formation of little spherical particles was further affirmed by TEM images (Figure 5b). In comparison with the nanostructure of GCR-1 aggregates, smaller nanostructures with a diameter of ca. 5 ± 2 nm were formed in the aqueous solution mixture of GCR-2, which was in good accordance with the DLS measurements.
TEM images were recorded on a HT7700 TEM instrument (Hitachi, Tokyo, Japan) operated at 110 kV accelerating voltage. The samples with 20 mM solutions were ultrasonicated in water for 10 min and then dispersed on 300 mesh carbon-coated copper grid.

Hemolytic activity = assay type: cell-based; conditions: human erythrocyte suspension, human erythrocytes, 37 °C
Procedure: The hemolytic activity of the compounds was estimated by comparing the optical density of a solution containing a compound being tested and the blood with the optical density of the blood upon 100% hemolysis. A 10% suspension of human erythrocytes was used as an object of investigation; an erythrocytic mass with heparin was washed three times with a physiologic saline (0.9% NaCl) solution, centrifuged for 10 min at 800× g, and resuspended in the physiologic saline (0.9% NaCl) solution to a concentration of 10%. The concentrations of the compounds that corresponded to the MIC for the bacterial test strains were prepared in a physiologic saline (0.9% NaCl) solution (supplemented with 5% DMSO), and 4.5 mL of a compound at the corresponding dilution was added to 0.5 mL of a 10% suspension of erythrocytes. Samples were incubated for 1 h at 37 °C and centrifuged for 10 min at 2000× g. The release of hemoglobin was controlled by measuring the optical density of the supernatant on an AP-101 digital photoelectrocolorimeter (Apel, Kawaguchi, Japan) at 540 nm. Simultaneously, control samples were prepared: controls for zero hemolysis (blank): 0.5 mL of a 10% suspension of erythrocytes was added to a physiologic saline (0.9% NaCl) solution; 100% hemolysis: 0.5 mL of a 10% suspension of erythrocytes was added to 4.5 mL of distilled water. The experiments were repeated three times and data are presented as the mean ± standard deviation.

[7] = Conductometry, critical aggregation concentration; assay type: physicochemical; conditions: water solution, 25 °C; GCR-2 in the presence of two-fold excess of MG
Procedure: Firstly, self-assembly of GCR-1 was studied by conductometric measurements (Figure 1). Specific conductivity increases proportionately with the GCR-1 concentration in water solution. Inflection on the plot appears at 14 mM, and after this critical aggregation concentration (CAC) the increment rate of conductivity reduces because the aggregates transfer charge less efficiently than monomers. Remarkably, modification of calix[4]resorcinarene by N-methyl-D-glucamine fragment facilitates self-aggregation of macrocycle in water medium (Figure 1). The CAC value for calix[4]resorcinarene (CR-1) without meglumine units at the upper rim is 20 mM that is greater than that for meglumine-modified calix[4]resorcinarene. The driving forces of intermolecular aggregates’ formation are probably hydrogen bonds between hydroxyl groups on the GCR-1 upper rim, so the presence of additional OH-groups in the meglumine group reinforces this noncovalent interaction. A stable pH value, which can be observed over a wide range of concentrations, verifies that the N-methyl-D-glucamine fragment is an effective buffer component (Figure S4). […] As a result, the aggregation of this calix[4]resorcinarene was studied in water solutions at the presence of two-fold excess of N-methyl-D-glucamine (MG). […] Specific conductivity values were measured at least three times for each concentration. […]

C.albicans 855–653 = assay: Fungicidal activity (MFC); assay type: cell-based; conditions: Candida albicans; C.albicans 855–653, fungicidal activity; read-out: Minimal Fungicidal Concentration (MFC)
Procedure: as §1

## CC1c2cc(c(O)c(CN(C)C[C@@H](O)[C@H](O)[C@@H](O)[C@@H](O)CO)c2O)C(C)c2cc(c(O)c(CN(C)C[C@@H](O)[C@H](O)[C@@H](O)[C@@H](O)CO)c2O)C(C)c2cc(c(O)c(CN(C)C[C@@H](O)[C@H](O)[C@@H](O)[C@@H](O)CO)c2O)C(C)c2cc1c(O)c(CN(C)C[C@@H](O)[C@H](O)[C@@H](O)[C@@H](O)CO)c2O (stereo partly drawn) [GCR-2, N-methyl-D-glucaminemethyl methylcalix[4]resorcinarene]
S. aureus 209P [1]
  MIC: 130 ± 10 µM (≈ 179 µg/mL)
B. cereus 8035 [2]
  MIC: 250 µM (≈ 343 µg/mL)
[3]
  Stability of water solutions: unstable and eventually precipitate
S. aureus 209P [4]
  MBC: 1000 ± 80 µM (≈ 1370 µg/mL)
B. cereus 8035 [5]
  MBC: > 1000 µM
[6]
  Diameter of nanostructures by TEM: ca. 5 ± 2 nm
Hemolytic activity; concentration 0.125 mM
  hemolysis at 1 h, 0.125 mM: 21.3 ± 1.7%
Hemolytic activity; concentration 0.25 mM
  hemolysis at 1 h, 0.25 mM: 31.6 ± 2.7%
Hemolytic activity; concentration 0.50 mM
  hemolysis at 1 h, 0.5 mM: 38.1 ± 3.4%
other
  melting point: > 350 °C
[7]
  CAC, conductometry: 7.9 mM
C.albicans 855–653
  MFC: > 500 µM
